Legend:
Type in all cases: biochemical
[1] = biological target: T1, Canine heart PDE III (Canis lupus familiaris, UniProt A0A8I3NYE0); test: Inhibition of Phosphodiesterase Type III (PDE III), canine heart; conditions: 1.2 μM 3H-cAMP, pH 7.1, 10 min at 37° C.
T1 construct: canine and human heart phosphodiesterase PDE III; from tissue; host or cells: canine heart (muscle)
T1 sequence (A0A8I3NYE0 1-1135): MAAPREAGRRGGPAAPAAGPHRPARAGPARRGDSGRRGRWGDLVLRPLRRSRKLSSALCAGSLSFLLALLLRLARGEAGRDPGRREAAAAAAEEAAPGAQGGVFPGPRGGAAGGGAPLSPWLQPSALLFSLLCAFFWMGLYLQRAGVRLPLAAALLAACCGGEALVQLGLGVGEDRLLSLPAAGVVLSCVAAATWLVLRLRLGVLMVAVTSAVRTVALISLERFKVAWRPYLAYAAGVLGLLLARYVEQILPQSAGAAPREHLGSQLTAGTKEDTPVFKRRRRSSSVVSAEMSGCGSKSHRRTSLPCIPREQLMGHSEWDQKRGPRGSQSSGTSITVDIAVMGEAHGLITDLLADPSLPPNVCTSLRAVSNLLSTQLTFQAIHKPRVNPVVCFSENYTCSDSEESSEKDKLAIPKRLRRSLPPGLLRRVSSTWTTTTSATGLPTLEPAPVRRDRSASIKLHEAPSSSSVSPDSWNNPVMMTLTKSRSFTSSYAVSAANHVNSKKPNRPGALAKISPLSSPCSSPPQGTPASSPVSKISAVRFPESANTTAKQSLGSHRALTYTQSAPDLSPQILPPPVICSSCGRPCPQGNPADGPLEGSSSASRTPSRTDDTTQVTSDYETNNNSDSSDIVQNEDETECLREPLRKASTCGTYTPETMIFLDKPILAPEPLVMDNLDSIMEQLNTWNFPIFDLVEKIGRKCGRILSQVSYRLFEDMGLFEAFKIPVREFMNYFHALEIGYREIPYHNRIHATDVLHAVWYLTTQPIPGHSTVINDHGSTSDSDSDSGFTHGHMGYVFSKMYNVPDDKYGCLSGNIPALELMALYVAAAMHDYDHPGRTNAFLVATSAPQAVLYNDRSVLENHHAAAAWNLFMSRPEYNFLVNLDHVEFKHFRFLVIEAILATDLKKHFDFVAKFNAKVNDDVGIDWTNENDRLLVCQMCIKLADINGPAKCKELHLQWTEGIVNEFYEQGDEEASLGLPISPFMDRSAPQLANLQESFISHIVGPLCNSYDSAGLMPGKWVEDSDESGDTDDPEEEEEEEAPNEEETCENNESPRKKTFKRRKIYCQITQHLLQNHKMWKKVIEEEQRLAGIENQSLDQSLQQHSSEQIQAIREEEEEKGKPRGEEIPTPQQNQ
Procedure: (§1) The alleviating and/or curing effect of the instant compounds on allergic and atopic diseases was assessed by an in vitro assay system to detect an inhibiting effect on the phosphodiesterase type III in human and canine muscle cells and a similar inhibiting effect on the phosphodiesterase type IV in human mononuclear lymphocytes.
(§2) The incubation mixture (pH 7.1) (200 μl) contained 40 mM Tris, 3.75 mM 2-mercaptoethanol, 6 mM magnesium chloride, 1.2 μM ^3 H-cAMP (310 mCi/mmole) and the phosphodiesterase type III, the amount depending on the enzymatic activity.
(§3) When the effect of different compounds on phosphodiesterase activity was tested, the medium without cAMP was incubated with the compound(s) or its carrier (DMSO-1% final concentration) for 5 min. The enzymatic reaction was started by addition of ^3 H-cAMP and stopped 10 min later after transferring the tubes in a waterbath at 100° C. for 40 sec. After cooling to room temperature, alkaline phosphatase (0.25 μg/ml) was added and the mixture was left at room temperature for 20 min. The mixture was subsequently applied to a 1 ml DEAE-Sephadex A-25 column (pasteur pipet) and washed twice with 3 ml 20 mM Tris-HCl at pH 7.4. The ^3 H-labelled reaction products in the eluate were quantified by liquid scintillation counting.
(§4) The inhibiting effect of the present compounds on canine and human heart phosphodiesterase PDE III was measured at different concentrations of the instant compounds. The IC50 values were calculated graphically from the thus obtained inhibition values.

[2] = biological target: T2, Human heart PDE III (Homo sapiens, UniProt Q14432); test: Inhibition of Phosphodiesterase Type III (PDE III), human heart; conditions: 1.2 μM 3H-cAMP, pH 7.1, 10 min at 37° C.
T2 construct: canine and human heart phosphodiesterase PDE III; from tissue; host or cells: human heart (muscle)
Procedure: as §1, §2, §3, §4

[3] = biological target: Human MNL PDE IV; test: Inhibition of Phosphodiesterase Type IV From Human Mononuclear Lymphocytes (MNL); conditions: human mononuclear lymphocyte PDE IV; in presence of 10^-4 M cGMP; 1.2 μM 3H-cAMP, pH 7.1, 10 min at 37° C.
Procedure: as §1
Human blood was obtained from donors that were documented before to suffer from allergic or atopic disease. 35 ml of blood was obtained from the […] veins by venipuncture and collected in 5 ml 100 mM K2 EDTA pH 7.1. 4 ml of 0.6% dextran in saline was added and the mixture was left at room temperature for 30 min. The red blood cell free supernatant was collected, layered gently on a Lymphoprep solution and centrifuged at 750 g for 15 min at 18° C. The interfase was collected, diluted with a buffer containing […], 50 mM KCl and 100 mM HEPES at pH 7.4, and centrifuged at 900 g for 10 min at 10° C. The resulting pellet was resuspended in the same buffer.
The suspension of MNLs was adjusted to 1% Triton X100 and 0.3% Brij35 and frozen in liquid N2. After 3 freeze-thawn cycles, the suspension was homogenized at 4° C. in a Polytron PT3000 (Kinematica AG) homogenizer (PT-DA 3020/2 TS) at 8000 rpm for 5×10 sec, followed by sonication at 4° C. in a Branson sonifier 250 at a frequency output of 20000 Hz, working output 40 W for 10×30 sec. The homogenate was centrifuged at 10000 g for 10 min. The resulting supernatant was used as source for PDE IV activity. The incubation mixture (pH 7.1) (200 μl) contained 40 mM Tris, 3.75 mM 2-mercapto-ethanol, 6 mM magnesium chloride, 1.2 μM ^3 H-cAMP (310 mCi/mmole) and the phosphodiesterase type IV, the amount depending on the enzymatic activity. […] To block contaminating PDE III activity, PDE IV activity was measured in the presence of 10^-4 M cGMP.
as §3
The inhibiting effect of the present compounds on human mononuclear lymphocyte phosphodiesterase PDE IV was measured at different concentrations of the instant compounds. The IC50 values were calculated graphically from the thus obtained inhibition values.

T2 sequence (Q14432 whole entry): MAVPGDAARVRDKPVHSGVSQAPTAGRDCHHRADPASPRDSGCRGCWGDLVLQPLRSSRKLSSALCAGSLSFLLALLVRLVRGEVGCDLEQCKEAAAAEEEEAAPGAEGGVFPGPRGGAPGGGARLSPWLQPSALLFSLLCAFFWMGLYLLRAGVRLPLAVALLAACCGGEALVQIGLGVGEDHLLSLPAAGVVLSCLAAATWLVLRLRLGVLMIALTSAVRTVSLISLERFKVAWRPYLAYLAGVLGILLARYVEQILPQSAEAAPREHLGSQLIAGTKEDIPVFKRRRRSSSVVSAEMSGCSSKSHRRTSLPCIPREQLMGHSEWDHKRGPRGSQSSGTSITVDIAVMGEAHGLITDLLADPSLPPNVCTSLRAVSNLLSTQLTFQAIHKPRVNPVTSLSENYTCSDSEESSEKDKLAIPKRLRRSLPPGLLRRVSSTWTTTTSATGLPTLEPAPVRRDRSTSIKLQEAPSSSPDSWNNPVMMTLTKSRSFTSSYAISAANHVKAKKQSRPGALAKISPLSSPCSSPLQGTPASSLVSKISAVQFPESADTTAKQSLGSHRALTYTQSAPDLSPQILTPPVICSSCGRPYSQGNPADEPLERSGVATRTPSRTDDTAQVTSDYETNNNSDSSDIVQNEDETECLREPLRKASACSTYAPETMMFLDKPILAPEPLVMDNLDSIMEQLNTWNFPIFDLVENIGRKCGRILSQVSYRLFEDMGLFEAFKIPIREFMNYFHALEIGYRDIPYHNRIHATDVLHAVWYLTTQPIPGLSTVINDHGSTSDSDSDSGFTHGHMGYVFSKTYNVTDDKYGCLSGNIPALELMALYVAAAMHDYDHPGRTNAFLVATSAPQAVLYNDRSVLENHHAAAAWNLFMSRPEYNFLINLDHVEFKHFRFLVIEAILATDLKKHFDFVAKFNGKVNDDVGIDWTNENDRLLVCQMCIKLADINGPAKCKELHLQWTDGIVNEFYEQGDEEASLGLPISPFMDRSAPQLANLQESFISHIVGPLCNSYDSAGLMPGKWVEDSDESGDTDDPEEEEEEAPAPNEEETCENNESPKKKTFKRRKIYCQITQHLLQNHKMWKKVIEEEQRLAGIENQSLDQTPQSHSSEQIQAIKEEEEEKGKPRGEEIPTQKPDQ

| SMILES | IC50 [1] [nM] | IC50 [2] [nM] | IC50 [3] [nM] |
| --- | --- | --- | --- |
| O=C(c1cccnc1)c1ccc2nc3[nH]c(=O)[nH]c3cc2c1 [Compound 5, 1,3-dihydro-7-(3-pyridinylcarbonyl-2H-imidazo[4,5-b]quinolin-2-one monohydrate] | 42 | 120 | – |
| O=C(O)CCCCON=C(c1cccnc1)c1ccc2nc3[nH]c(=O)[nH]c3cc2c1 [Compound 14, (E+Z)-5-[[[(2,3-dihydro-2-oxo-1H-imidazo[4,5-b]quinolin-7-yl)(3-pyridinyl)methylene]amino]oxy]pentanoic acid monohydrate] | 100 | 100 | – |
| CN(C(=O)CO/N=C(/c1ccccc1)c1ccc2nc3[nH]c(=O)[nH]c3cc2c1)C1CCCCC1 [Compound 7] | 32 | 27 | 2600 |
| COc1ccc(C(=O)c2ccc3nc4[nH]c(=O)[nH]c4cc3c2)cc1OC [Compound 2, 7-(3,4-dimethoxybenzoyl)-1,3-dihydro-2H-imidazo[4,5-b]quinolin-2-one] | 33 | 86 | 4500 |
| O=C(c1ccc(F)cc1)c1ccc2nc3[nH]c(=O)[nH]c3cc2c1 [Compound 3, 7-(4-fluorobenzoyl)-1,3-dihydro-2H-imidazo[4,5-b]quinolin-2-one] | 37 | 36 | – |
| O=C(O)CCCCO/N=C(\c1cccnc1)c1ccc2nc3[nH]c(=O)[nH]c3cc2c1 [Compound 13, (Z)-5-[[[(2,3-dihydro-2-oxo-1H-imidazo[4,5-b]-quinolin-7-yl)(3-pyridinyl)methylene]amino]oxy]pentanoic acid] | 84 | 49 | – |

These reach a lower IC50 [1]. Values come first.

| IC50 [1] [nM] | IC50 [2] [nM] | IC50 [3] [nM] | SMILES |
| --- | --- | --- | --- |
| 21 | 18 | – | COc1cccc(C(=O)c2ccc3nc4[nH]c(=O)[nH]c4cc3c2)c1 [Compound 9] |
| 10 | 42 | 5800 | O=C(c1ccccc1)c1ccc2nc3[nH]c(=O)[nH]c3cc2c1 [Compound 1, 7-benzoyl-1,3-dihydro-2H-imidazo[4,5-b]quinolin-2-one] |
| 29 | 33 | 3600 | CCOC(=O)CCCCO/N=C(/c1cccnc1)c1ccc2nc3[nH]c(=O)[nH]c3cc2c1 [Compound 12] |
| 26 | 18 | – | Cc1ccc(C(=O)c2ccc3nc4[nH]c(=O)[nH]c4cc3c2)cc1 [Compound 4, 1,3-dihydro-7-(4-methylbenzoyl)-2H-imidazo[4,5-b]quinolin-2-one] |
| 26 | 39 | – | CCOC(=O)CO/N=C/c1ccc2nc3[nH]c(=O)[nH]c3cc2c1 [Compound 11] |
| 14 | 17 | 490 | CN(C(=O)CO/N=C(\c1ccccc1)c1ccc2nc3[nH]c(=O)[nH]c3cc2c1)C1CCCCC1 [Compound 10, (E)-N-cyclohexyl-2-[[[(2,3-dihydro-2-oxo-1H-imidazo{4,5-b]quinolin-7-yl)phenylmethylene]amino]oxy]-N-methylacetamide] |
| 30 | 44 | 1700 | CCOC(=O)CCCCO/N=C(\c1cccnc1)c1ccc2nc3[nH]c(=O)[nH]c3cc2c1 [Compound 6] |

Source: patent US5516908A, “1,3-dihydro-2H-imidazo-[4,5-β]quinolin-2-one derivatives and intermediates” (Janssen Pharmaceutica N.V., priority 1995, dated 1996)
